Data set [1] deals with Bromodomain-containing protein 4 (Homo sapiens), O60885 [UNDEFINED MUTATION]. Put plainly: Selectivity index, ratio of IC50 for displacement of Alexa Fluor 647 labelled ligand from His6-tagged BRD4 BD1 (1 to 477 residues)/BD2 Y390A mutant (unknown origin) to IC50 for displacement of Alexa Fluor 647 labelled ligand from His6-tagged BRD4 BD2 (1 to 477 residues)/BD1 Y97A mutant (unknown origin).

Data set [2] is described as follows: Chromatographic hydrophobicity index, log D of the compound in pH 7.4 ammonium acetate buffer/acetonitrile gradient by HPLC analysis. It is filed as physicochemical.
Data set [3] deals with Bromodomain-containing protein 4 (Homo sapiens, UniProt O60885, Y97A). The experiment in a line: Displacement of Alexa Fluor 647 labelled ligand from His6-tagged BRD4 BD2 (1 to 477 residues)/BD1 Y97A mutant (unknown origin) after 30 mins by TR-FRET assay. On the technique in general: Time-resolved FRET reads energy transfer from a long-lived donor to a nearby acceptor.
The target in data set [4] is Bromodomain-containing protein 4 (Homo sapiens, UniProt O60885, Y390A). The experiment in a line: Displacement of Alexa Fluor 647 labelled ligand from His6-tagged BRD4 BD1 (1 to 477 residues)/BD2 Y390A mutant (unknown origin) after 30 mins by TR-FRET assay.
The subject of data set [5] is Blood. The experiment in a line: Inhibition of LPS-induced MCP1 production in human whole blood preincubated for 30 mins followed by LPS addition measured after 24 hrs by immuno assay. It is filed as functional, tissue-based.
Data set [6] in a line: Clearance in Wistar Han rat hepatocytes assessed as per gram tissue at 0.5 uM by LC-MS/MS analysis. It is filed as ADME, cell-based, Hepatocyte.
Data set [7] in a line: Clearance in human pooled hepatocytes assessed as per gram tissue at 0.5 uM by LC-MS/MS analysis. It counts as ADME, cell-based, Hepatocyte.
The target of data set [8] is serum albumin (Homo sapiens, UniProt P02768). The experiment in a line: Binding affinity to human serum albumin. It is filed as ADME. The settings on record: read-out: PB (converted).
Chain of serum albumin (P02768 whole entry, the tested form may be a part): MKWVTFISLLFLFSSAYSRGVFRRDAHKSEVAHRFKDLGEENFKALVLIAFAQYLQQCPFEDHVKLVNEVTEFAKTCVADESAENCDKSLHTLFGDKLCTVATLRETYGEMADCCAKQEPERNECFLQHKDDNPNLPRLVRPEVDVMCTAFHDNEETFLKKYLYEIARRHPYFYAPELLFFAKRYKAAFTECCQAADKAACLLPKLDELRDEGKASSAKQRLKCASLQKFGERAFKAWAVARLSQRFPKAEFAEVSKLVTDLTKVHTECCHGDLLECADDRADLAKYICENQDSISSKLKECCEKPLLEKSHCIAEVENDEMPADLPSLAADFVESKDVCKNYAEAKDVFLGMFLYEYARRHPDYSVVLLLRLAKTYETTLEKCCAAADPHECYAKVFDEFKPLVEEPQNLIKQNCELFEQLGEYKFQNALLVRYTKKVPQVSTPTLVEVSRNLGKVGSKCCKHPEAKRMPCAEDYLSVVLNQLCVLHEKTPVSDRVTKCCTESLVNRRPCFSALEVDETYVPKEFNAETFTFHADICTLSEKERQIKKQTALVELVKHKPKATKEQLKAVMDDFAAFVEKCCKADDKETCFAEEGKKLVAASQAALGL
A short description of data set [9]: Renal clearance in Wistar Han rat at 1 mg/kg administered as iv infusion for 1 hr and measured up to 7 hrs by LC-MS/MS analysis. It counts as ADME, organism-based. The settings on record: in vivo.
Data set [10] in a line: Clearance in Wistar Han rat at 1 mg/kg administered as iv infusion for 1 hr and measured up to 7 hrs by LC-MS/MS analysis. It counts as ADME, organism-based. The settings on record: in vivo.
The nature of data set [11]: Volume of distribution at steady state in Wistar Han rat at 1 mg/kg administered as iv infusion for 1 hr and measured up to 7 hrs by LC-MS/MS analysis. It counts as ADME, organism-based. The settings on record: in vivo, read-out: Vdss.
Data set [12] is described as follows: Solubility of compound by CLND method. It counts as physicochemical.
A short description of data set [13]: Permeability of compound by artificial membrane assay. It counts as ADME. The settings on record: PAMPA; read-out: permeability. (In general: In PAMPA a lipid-coated filter parts donor from acceptor wells.)
Data set [14] can be described thus: Oral bioavailability in Wistar Han rat at 3 mg/kg administered via gavage and measured up to 7 hrs by LC-MS/MS analysis. It is filed as ADME, organism-based. The settings on record: in vivo.
Data set [15] is described as follows: Half life in Wistar Han rat at 1 mg/kg administered as iv infusion for 1 hr and measured up to 7 hrs by LC-MS/MS analysis. It is filed as ADME, organism-based. The settings on record: in vivo.
Data set [16] can be described thus: Clearance in Beagle dog hepatocytes assessed as per gram tissue at 0.5 uM measured up to 2 hrs by LC-MS/MS analysis. It is filed as ADME, cell-based, Canis lupus familiaris, Hepatocyte.
A short description of data set [17]: Clearance in human pooled hepatocytes assessed as per gram tissue at 0.5 uM measured up to 2 hrs by LC-MS/MS analysis. It counts as ADME, cell-based, Hepatocyte.
The nature of data set [18]: Clearance in Wistar Han rat hepatocytes assessed as per gram tissue at 0.5 uM measured up to 1 hr by LC-MS/MS analysis. It is filed as ADME, cell-based, Hepatocyte.
Data set [19] can be described thus: Clearance in Beagle dog hepatocytes assessed as per gram tissue at 0.5 uM measured up to 1 hr by LC-MS/MS analysis. It counts as ADME, cell-based, Canis lupus familiaris, Hepatocyte.
Data set [20] concerns PBMC. The experiment in a line: Inhibition of LPS-induced MCP1 production in human PBMC. It is filed as functional, cell-based.

pIC50: −log10 of the molar value. In brackets after ≈: the same amount, converted by molar mass. Some results are limits rather than exact numbers.

As a reminder, the pIC50 is −log10 of the IC50, conventionally taken in molar units. Low readings indicate a large IC50, high ones a small IC50. For the compound `CNC(=O)c1cc(C(N)=O)cc2c1O[C@H](C)[C@H]2c1ccccc1`, the Ratio IC50 in data set [1] turned out to be 160. The compound also returned a CHI in data set [2] of 3.28. Further, the negative-log IC50 (pIC50) in [3] is 7.00; in data set [4] it was 4.80.
In the case of `CNC(=O)c1cc(C(=O)N[C@H]2C[C@H](O)C2)cc2c1O[C@H](CF)[C@H]2c1ccccc1`, the Ratio IC50 in data set [1] is 400. The pIC50 is 6.50 in [5], 7.10 in [3] and 4.50 in [4]. Further, the CHI in data set [2] amounted to 2.92. The results for the CLH in data set [6] and in data set [7] were 1.84 mL/min/g and under 0.45 mL/min/g, respectively.
In data set [2], `CNC(=O)c1cc(C(=O)NC2CC2)cn(Cc2ccccc2)c1=O` [GSK620] showed a CHI of 3.07.
With `CNC(=O)c1cc(C(=O)NC)c2c(c1)[C@H](c1ccccc1)[C@@H](C)O2`, the Ratio IC50 in data set [1] turned out to be 400. Moreover, the CHI in [2] stood at 3.55. Also, the pIC50 is 7.50 in [3] and 4.90 in [4].
As usually defined, the clearance is the volume of plasma or blood freed of the substance per unit of time. A high value points to efficient removal. Usually solubility (kinetic) stands for solubility judged after dilution from a stock solution rather than from solid. Broadly, the bioavailability is dose-corrected exposure relative to a reference, in per cent. High values mean good availability, low ones poor availability. The half-life is the time needed for the level to fall by half in the phase considered. `CNC(=O)c1cc(C(=O)NC2CC2)cc2c1O[C@H](CO)[C@H]2c1ccccc1`: in data set [8], the fraction unbound is 0.21. The compound further gave a CL renal in data set [9] of 23 mL/min/kg. Further, the clearance in data set [10] is 74 mL/min/kg. In data set [11], the Vd amounted to 1.4 L/kg. The compound also yielded a solubility (kinetic) in [12] of over 177 µg/mL. In addition, the pIC50 in data set [5] was 6.10. Further, the CHI in data set [2] worked out at 2.53. Further, the Papp in [13] was 26.6 ×10⁻⁶ cm/s. For the same compound, the bioavailability in [14] came to 2%. This compound gave a half-life in data set [15] of 24 min. For the same compound, the figures for the CLH in data set [6] and in data set [7] were under 0.8 mL/min/g and under 0.45 mL/min/g, respectively.
Turning to `CNC(=O)c1cc(C(=O)N[C@@H]2C[C@H]2CO)cc2c1O[C@H](CF)[C@H]2c1ccccc1`, in data set [9], the CL renal came out at 4 mL/min/kg. The clearance in [10] was 98 mL/min/kg. Also, the Ratio IC50 in data set [1] was 800. For the same compound, in data set [11], the Vd came to 1.7 L/kg. Also, the CLH in data set [16] was under 0.65 mL/min/g; in [17], under 0.45 mL/min/g; in data set [6] it was 1.65 mL/min/g. This compound returned a solubility (kinetic) in data set [12] of 114 µg/mL (≈ 286 µM). Also, the negative-log IC50 (pIC50) in data set [5] was 6.70; in data set [4], 4.80. Also, the CHI in [2] is on record as 3. The Papp in [13] is 7.3 ×10⁻⁶ cm/s. Also, in data set [14], the bioavailability was 15%. This compound gave a half-life in [15] of 30 min.
For the compound `CNC(=O)c1cc(C(=O)N[C@H]2C[C@@H]2C)cc2c1O[C@H](CF)[C@H]2c1ccccc1`, the pIC50 in data set [5] was 7.00. In data set [2], this compound returned a CHI of 4.53.
For `CNC(=O)c1cccc2c1O[C@@H](c1ccccc1)[C@@H]2C`, in [1], the Ratio IC50 was found to be 5. In [3], this compound had a negative logarithm of the IC50 (pIC50) of 5.00.
For `CNC(=O)c1cccc2c1O[C@@H](C)[C@H]2c1ccccc1` the same measures were 10 and 5.60.
Turning to `CCNC(=O)c1cc(C(=O)NC)c(=O)n(Cc2ccccc2)c1`, in data set [2], the CHI stood at 2.99.
With `CNC(=O)c1cc(C(=O)NC2CCOC2)cc2c1O[C@H](CF)[C@H]2c1ccccc1` (stereo partly specified), in [1], the Ratio IC50 is over 300. The compound further had a CHI in data set [2] of 3.51. The pIC50 in data set [3] was 6.80; in [4], under 4.30.
The compound `CNC(=O)c1cc(C(N)=O)cc2c1O[C@H](CF)[C@H]2c1ccccc1` displayed a CHI in [2] of 2.89.
Same read-out and setting: the same measure for `CNC(=O)c1cc(C(=O)NCCO)cn(Cc2ccccc2)c1=O`: 1.9; for `CNC(=O)c1cc(C(=O)NC)c(=O)n(Cc2ccccc2)c1`: 2.38.
With `CNC(=O)c1cc(C(=O)NCCC[C@H]2OC[C@H](N)CO2)cc2c1O[C@H](CF)[C@H]2c1ccccc1`, the CL renal in data set [9] came to 10 mL/min/kg. The same compound had a clearance in data set [10] of 73 mL/min/kg. Also, the Vd in data set [11] was found to be 2.1 L/kg. This compound also gave a pIC50 in [5] of 6.90. The CHI in data set [2] is listed as 2.94. For the same compound, the Papp in [13] was 4.5 ×10⁻⁶ cm/s. Further, the bioavailability in [14] came out at 3%. The compound also gave a half-life in data set [15] of 36 min. Moreover, in data set [6], the CLH is 1.39 mL/min/g.
As for `CNC(=O)c1cc(C(=O)NCC[C@@H]2CNCCO2)cc2c1O[C@H](CF)[C@H]2c1ccccc1`, in [1], the Ratio IC50 worked out at 1200. In addition, the CLH in data set [16] is under 0.65 mL/min/g; in [17] it was under 0.45 mL/min/g; in data set [6], 1.28 mL/min/g. In addition, the negative-log IC50 (pIC50) in data set [5] was 6.80; in [3] it was 7.40; in data set [4], 4.30. In data set [2], this compound gave a CHI of 2.18.
As for `CNC(=O)c1cc(C(=O)NCCOC)cn(Cc2ccccc2)c1=O`, the CHI in data set [2] worked out at 2.74.
Same read-out and setting: the same measure for `CNC(=O)c1cc(C(N)=O)cn(Cc2ccccc2)c1=O`: 2.03.
As to `CNC(=O)c1cc(C(=O)NCCO)cc2c1O[C@H](C)[C@H]2c1ccccc1`, the Ratio IC50 in data set [1] is over 320. Besides, in [2], the CHI stood at 3.12. The pIC50 is 6.80 in data set [3] and under 4.30 in data set [4].
For `CCNC(=O)c1cc(C(=O)NC)c2c(c1)[C@H](c1ccccc1)[C@@H](C)O2` the same measures were 1000, 4.11, 7.40 and 4.40.
Taken in the same sequence, the figures for `CNC(=O)c1cc(C(=O)NCCOC)cc2c1O[C@H](C)[C@H]2c1ccccc1` were 200, 3.81, 6.70 and 4.40.
Turning to `CNC(=O)c1cccc2c1O[C@H](C)[C@H]2c1ccccc1` (single isomer, unassigned), the Ratio IC50 in data set [1] stood at 25. Also, the pIC50 in [3] is 6.10.
For the compound `CNC(=O)c1cc(C(=O)NC)c2c(c1)[C@H](c1ccccc1)[C@@H](CF)O2`, the CLH in data set [18] is 3.02 mL/min/g; in data set [7] it was under 0.45 mL/min/g. This compound also had a pIC50 in data set [5] of 6.70. In data set [2], this compound gave a CHI of 3.34.
As for `CNC(=O)c1cc(C(=O)NC2CC2)cc2c1O[C@H](CF)[C@H]2c1ccccc1`, the CLH in data set [18] is 3.2 mL/min/g; in [19] it was under 1.26 mL/min/g; in [7], under 0.45 mL/min/g. Moreover, the pIC50 in data set [5] was 6.70. This compound also registered a CHI in data set [2] of 3.94.
Take `CNC(=O)c1cc(C(=O)NC2CC2)cc2c1O[C@H](C)[C@H]2c1ccccc1`: in data set [8], the fraction unbound is 0.11. In data set [9], this compound showed a CL renal of 0.2 mL/min/kg. The clearance in data set [10] turned out to be 90 mL/min/kg. Also, the Ratio IC50 in [1] was 1600. For the same compound, the results for the pIC50 in data set [20] and in [5] were 8.20 and 6.70, respectively. The Vd in data set [11] amounted to 2.3 L/kg. For the same compound, the kinetic solubility in data set [12] was determined as 137 µg/mL (≈ 391 µM). For the same compound, the CHI in [2] was found to be 4.24. The Papp in data set [13] is 44 ×10⁻⁶ cm/s. In addition, the half-life in data set [15] is 24 min. Also, the CLH in data set [6] was 2.48 mL/min/g; in data set [7] it was 1.42 mL/min/g.

These data come from ChEMBL document CHEMBL4619816, “GSK973 Is an Inhibitor of the Second Bromodomains (BD2s) of the Bromodomain and Extra-Terminal (BET) Family” (ACS Med Chem Lett, 2020).
